Key:
human P2X7R = biological target: T1, human P2X7R (Homo sapiens, UniProt Q99572); assay: Dye uptake assay (ethidium bromide) in HEK-293 cells transfected with hP2X7R; assay type: cell-based; settings: for IC50: ethidium uptake assay, HEK-293 cells transfected with human P2X7R, mean ± SD
T1 construct: expressed in transfected cells; host or cells: HEK-293
T1 sequence (Q99572 1-595): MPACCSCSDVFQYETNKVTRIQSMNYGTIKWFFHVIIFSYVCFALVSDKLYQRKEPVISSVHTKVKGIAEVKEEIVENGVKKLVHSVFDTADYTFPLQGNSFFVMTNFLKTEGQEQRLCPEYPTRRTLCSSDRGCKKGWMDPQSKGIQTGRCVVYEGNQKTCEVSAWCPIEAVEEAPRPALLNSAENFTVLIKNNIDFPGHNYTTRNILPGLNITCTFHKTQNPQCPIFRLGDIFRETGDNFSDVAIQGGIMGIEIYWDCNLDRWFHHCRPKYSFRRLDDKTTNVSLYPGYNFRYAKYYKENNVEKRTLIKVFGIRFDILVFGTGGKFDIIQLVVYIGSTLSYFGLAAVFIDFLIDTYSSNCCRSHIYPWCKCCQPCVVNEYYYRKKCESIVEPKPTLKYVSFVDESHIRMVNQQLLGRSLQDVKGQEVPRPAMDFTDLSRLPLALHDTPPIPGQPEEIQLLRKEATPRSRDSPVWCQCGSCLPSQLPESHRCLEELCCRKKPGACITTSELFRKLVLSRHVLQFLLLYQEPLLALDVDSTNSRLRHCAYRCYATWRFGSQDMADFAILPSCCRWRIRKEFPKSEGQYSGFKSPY
Procedure: HEK-293 cells expressing human P2X7R were maintained in Dulbecco's modified Eagle's medium (DMEM; Sigma-Aldrich) supplemented with 10% fetal bovine serum (FBS; Prolab, Br) and anti-biotics (50 U/ml penicillin and […] streptomycin) in a humidified 5% CO2 atmosphere at 37°C (Faria et al., [2018]). A total of 5 × 10^5 cells were plated at 37°C in a humidified 5% CO2 atmosphere for 24 h in a 96-well plate for dye uptake or IL-1β release assays.
HEK-293 cells transfected with hP2X7R and mouse peritoneal macrophages were plated at 2.5 × 10^6 or 5 × 10^5 cells/ml, respectively, in 96-well culture plates containing DMEM with 10% FBS and anti-biotics (50 U/ml penicillin and […] streptomycin) in a humidified 5% CO2 atmosphere at 37°C for 24 h (Faria et al., [2018]).
P2X7R antagonist and thiadiazole analogs (1 nM to 0.5 mM) were incubated for 5 min before ATP (5 mM) treatment for 20 min. In the last 5 min of ATP incubation, propidium iodide for macrophages (PI; 750 nM) or ethidium bromide (EB; 25 μM) for HEK-293 cells was added to all wells. PI dye was excited at a wavelength of 530 nm, and its fluorescence emission was read at a wavelength of 590 nm using an M5 plate reader (Molecular Devices). EB dye was excited at a wavelength of 530 nm and emitted at a wavelength of 620 nm.

[1] = LDH release assay (toxicity); assay type: cell-based, mouse; settings: mouse peritoneal macrophages; for IC50 at 24 h: read-out: Macrophages IC50 (toxic effect); for CC50 at 24 h: mouse, peritoneal macrophages, toxicity measured for 24 h
Procedure: (§1) Mouse peritoneal macrophages (5 × 10^5 cells) and HEK-293 cells transfected with P2X7R (5 × 10^5 cells) were plated in a 96-well-plate for 24 h before the treatment. […] The supernatant collected in this assay was used to measure the presence of LDH in the media using a cytotoxicity detection kit (Sigma kit for LDH) according to the manufacturer's instructions (Faria et al., [2018]).

[2] = test system: mouse peritoneal macrophages; assay: LDH release assay (toxicity); assay type: cell-based; settings: 10 μM; relative to maximum LDH release caused by 0.05% Triton X-100; cell type not given; mean ± SD
Procedure: as §1

[3] = Stability in mouse liver microsomes; assay type: in vitro ADME; settings: male, pH 7.4, read-out: LM stability mouse (CLint)
Procedure: (§2) Thiadiazole 9f stability was evaluated in liver microsomes from male mice and humans according to Faria et al. in 2018 (Faria et al., [2018]). Both solutions contained a final protein concentration of 0.5 mg/ml (0.1 M phosphate buffer) at pH 7.4. Microsomes were preincubated with 9f (1 μM) and DMSO ([…]) at 37°C before NADPH (1 mM) addition. A control for the reaction was a buffer containing 0.1 M phosphate at pH 7.4 in a final volume of 50 μl. Diazepam and verapamil were used as positive controls for mice and humans, respectively. Both types of microsomes were treated with 9f for 0, 5, 15, 30, and 45 min and the negative control [minus Nicotinamide adenine dinucleotide phosphate (NADPH)] for 45 min. To stop the reactions, methanol (50 μl) was added at the appropriate time points, and the samples were centrifuged (1,640 × g) for 20 min at 4°C to […] protein precipitation.
(§3) In vitro intrinsic clearance (CLint mic) for the metabolism of 9f in mouse and human liver microsomes was calculated using the equations below:
(§4) Half-life (t1/2) (minutes) = 0.693/k (1)
(§5) V(μL/mg) = volume of the incubation solution (μl)/protein in the incubation solution (mg) (2)
(§6) Intrinsic clearance (CLint) (μl/minutes/mg protein) = V × 0.693/t1/2 (3) according to the manufacturer's instructions.

[4] = Stability in human liver microsomes; assay type: in vitro ADME; settings: pH 7.4, read-out: LM stability human (CLint)
Procedure: as §2, §3, §4, §5, §6

Caco-2 cell permeability = assay type: in vitro ADME; set-up: Papp at 60 min: dose or concentration left out as unconfirmed; settings: human, Caco-2, pH 7.4; apical to basolateral (A - B); mean ± standard error of three experiments; read-out: Caco-2 apparent permeability (Papp)
Procedure: Corning® Costar® Transwell plates (Sigma-Aldrich, St. Louis, MO, USA) were used for seeding Caco-2 cells at 3 × 10^5 cells/well bathed with DMEM supplemented with 10% FSB according to Faria and collaborator in 2018 (Faria et al., [2018]). This culture was maintained for up to 21 days in a humidified incubator at 37°C and 5% CO2. Thiadiazole analog, vinblastine (poor permeability control), and propranolol (high permeability control) stock solutions, all at a concentration of 100 mM, were prepared in Hanks' balanced salt solution (HBSS) containing 25 mM HEPES at pH 7.4 with 0.5% (v/v) DMSO. Transport buffer (0.3 ml) was added to each well to equilibrate the cells with the transport buffer. A 24-well enhanced recovery plate containing 1 ml of transport buffer (pH 7.4) was substituted for the feeder tray. The transport buffer in the apical wells was removed, and 0.3 ml of a solution containing thiadiazoles 9b, 9c, 9f, or 11c; vinblastine; or propranolol was added. Then, the cells were replaced for incubation for 60 min. Lucifer yellow concentrations in the donor and acceptor wells were measured in the last of this incubation. Lucifer yellow was measured using an M5 plate reader ([…]) at an excitation wavelength of 485 nm and an emission wavelength of 530 nm.

[5] = dye uptake, HEK-293-transfected cells

Compound | IC50 (human P2X7R) [µM] | IC50 at 24 h [1] [µM] | CC50 at 24 h [1] [µM] | % LDH release [2] [%] | microsomal CLint at 1 μM [3] [µL/min/mg] | microsomal CLint at 1 μM [4] [µL/min/mg] | Papp at 60 min (Caco-2 cell permeability) [×10⁻⁶ cm/s] | Potency relative to A740003 (times greater) (human P2X7R; [5]) | Potency relative to BBG (times greater) (human P2X7R; [5])
N#Cc1cnn(-c2nnc(-c3ccccc3Cl)s2)c1N [Compound 9b] | 0.041 ± 0.008 | 2270 ± 86 | 2270 | 15.8 ± 1.3 | 14.3 | 26.4 | 50.1 ± 1.1 | – | –
N#Cc1cnn(-c2nnc(-c3ccc(F)cc3)s2)c1N [Compound 9c] | 0.056 ± 0.002 | 3900 ± 77 | 6080 | 10 ± 0.7 | 11.6 | 18.6 | 56.1 ± 2.1 | – | –
CCOC(=O)c1cnn(-c2nnc(-c3ccccc3Cl)s2)c1N [Compound 9f] | 0.011 ± 0.001 | 6080 ± 102 | 3900 | 42.5 ± 0.4 | 26.7 | 39.5 | 73.4 ± 3.3 | eight | more than 50 times
Cc1cc(C)n(-c2nnc(-c3ccc(F)cc3)s2)n1 [Compound 11c, 2-(3,5-dimethyl-1H-pyrazol-1-yl)-5-(4-fluorophenyl)-1,3,4-thiadiazole] | 0.082 ± 0.005 | 3240 ± 201 | 3240 | 24 ± 1.7 | 38.5 | 46.7 | 77.9 ± 1 | – | –
COc1ccc(CC(=O)NC(NC(=NC#N)Nc2cccc3ncccc23)C(C)(C)C)cc1OC (centres unmarked) [Compound A740003, N-(1-{[(cyanoimino)(5-quinolinylamino)methyl]amino}-2,2-dimethylpropyl)-2-(3,4-dimethoxyphenyl)acetamide] | 0.097 ± 0.018 | 325 ± 6 | – | – | – | – | – | – | –

Source: publication PMC6511888, “Synthesis, Biological Evaluation, and Molecular Modeling Studies of New Thiadiazole Derivatives as Potent P2X7 Receptor Inhibitors” (Frontiers in Chemistry, 2019)
